pIC50: −log10 of the molar value. Counter-ions that a name gives are not always drawn. Where only a bound is given, the exact number is not on record here.

The record followed here is patent publication US10669269B2, “Substituted N-(1H-indazol-4-yl)imidazo[1,2-a]pyridine-3-carboxamide compounds as type III receptor tyrosine kinase inhibitors” (ARRAY BIOPHARMA INC., priority 2010, dated 2020).

The target of one assay is T1, cFMS (Homo sapiens, UniProt P07333).
T1 construct: THP-1 cells (human acute monocytic leukemia cell line) were serum-starved for 4 hours; endogenous in cells; host or cells: THP-1 cells (human acute monocytic leukemia cell line)
The assay is described as follows: cFMS Cell-Based Assay (Example C). The note with it: averaged IC50; phospho-cFMS in THP-1 cells stimulated with 250 ng/mL recombinant human MCSF; read-out: cFMS Cell ELISA IC50. In a few lines:
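THP-1 cells serum-starved 4 h, then treated 1 h with compound (9-point, 3-fold series, top dose typically 5,000 nM) at 37 °C, then stimulated 1 min with 250 ng/mL recombinant human MCSF. Phospho-cFMS in lysates quantified by capture ELISA against a purified phospho-protein standard curve. IC50 at 50 percent of control, 4-parameter logistic fit.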

The target of the next assay is T2, c-KIT (Homo sapiens, UniProt P10721).
T2 construct: M-07e cells (human acute megakaryoblastic leukemia cell line) were serum-starved for 4 hours; endogenous in cells; host or cells: M-07e cells (human acute megakaryoblastic leukemia cell line)
The assay is described as follows: c-KIT Cell-Based Assay (Example D). The note with it: averaged IC50; phospho-c-KIT in M-07e cells stimulated with 150 ng/ml recombinant human SCF; read-out: cKIT Cell ELISA IC50. In a few lines: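 M-07e cells serum-starved 4 h, treated 1 h with compound (9-point, 3-fold dilutions, top dose typically 5,000 nM) at 37° C, then stimulated 4 min with 150 ng/ml SCF. Phospho-c-KIT in lysates quantified by ELISA against a standard curve; IC50 from 4-parameter logistic fit as 50% of control.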

Another assay concerns the target T3, PDGFR beta (Homo sapiens, UniProt P09619).
T3 construct: endogenous in cells; host or cells: HS27 human fibroblast cell line
Nature of the assay: Phospho PDGFR Cell Assay, sandwich ELISA (Example A). It counts as cell-based. Conditions: averaged IC50, PDGFR beta phosphorylation in HS27 human fibroblast cell line, PDGF-BB stimulation 5 minutes. The protocol:
Compounds were screened for inhibition of PDGFR beta phosphorylation in the HS27 human fibroblast cell line. Cells were seeded into a 96 well tissue culture plate, then incubated overnight in a 37° C., 5% CO2 incubator. The following day, cells were treated for one hour with test compound dilutions. After stimulation with PDGF-BB ligand for 5 minutes, cells were lysed and added to a sandwich ELISA plate from R&D Systems to detect levels of phospho PDGFR beta. A standard 4-parameter logistic model was fit to the inhibitor dose response curves, with the IC50 being defined as the concentration of inhibitor giving 50 percent of control (POC).

T2 sequence (P10721 26-976): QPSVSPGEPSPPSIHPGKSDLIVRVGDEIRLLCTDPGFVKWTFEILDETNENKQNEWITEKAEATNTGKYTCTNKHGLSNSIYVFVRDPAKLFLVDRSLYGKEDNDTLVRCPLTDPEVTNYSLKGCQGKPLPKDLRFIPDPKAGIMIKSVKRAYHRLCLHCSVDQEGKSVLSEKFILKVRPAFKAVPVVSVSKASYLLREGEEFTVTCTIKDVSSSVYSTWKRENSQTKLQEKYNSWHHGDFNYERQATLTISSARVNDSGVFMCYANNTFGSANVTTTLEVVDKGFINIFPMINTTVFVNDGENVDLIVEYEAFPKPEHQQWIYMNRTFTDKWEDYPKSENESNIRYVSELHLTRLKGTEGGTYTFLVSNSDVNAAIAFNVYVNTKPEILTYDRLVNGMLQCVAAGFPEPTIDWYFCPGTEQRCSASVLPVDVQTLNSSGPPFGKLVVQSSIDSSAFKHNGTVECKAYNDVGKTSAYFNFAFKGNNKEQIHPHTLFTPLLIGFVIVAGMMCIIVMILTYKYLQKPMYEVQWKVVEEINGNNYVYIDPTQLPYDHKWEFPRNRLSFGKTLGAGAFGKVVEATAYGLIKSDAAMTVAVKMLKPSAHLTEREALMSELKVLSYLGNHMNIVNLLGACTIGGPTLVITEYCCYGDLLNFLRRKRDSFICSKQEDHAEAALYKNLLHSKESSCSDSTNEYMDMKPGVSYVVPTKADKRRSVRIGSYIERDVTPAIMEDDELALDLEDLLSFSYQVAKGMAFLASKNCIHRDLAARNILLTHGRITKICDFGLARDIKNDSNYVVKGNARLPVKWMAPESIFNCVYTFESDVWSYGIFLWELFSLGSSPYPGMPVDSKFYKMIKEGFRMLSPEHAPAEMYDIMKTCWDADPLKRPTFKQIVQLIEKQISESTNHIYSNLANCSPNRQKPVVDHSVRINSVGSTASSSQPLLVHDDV
T1 sequence (P07333 20-972): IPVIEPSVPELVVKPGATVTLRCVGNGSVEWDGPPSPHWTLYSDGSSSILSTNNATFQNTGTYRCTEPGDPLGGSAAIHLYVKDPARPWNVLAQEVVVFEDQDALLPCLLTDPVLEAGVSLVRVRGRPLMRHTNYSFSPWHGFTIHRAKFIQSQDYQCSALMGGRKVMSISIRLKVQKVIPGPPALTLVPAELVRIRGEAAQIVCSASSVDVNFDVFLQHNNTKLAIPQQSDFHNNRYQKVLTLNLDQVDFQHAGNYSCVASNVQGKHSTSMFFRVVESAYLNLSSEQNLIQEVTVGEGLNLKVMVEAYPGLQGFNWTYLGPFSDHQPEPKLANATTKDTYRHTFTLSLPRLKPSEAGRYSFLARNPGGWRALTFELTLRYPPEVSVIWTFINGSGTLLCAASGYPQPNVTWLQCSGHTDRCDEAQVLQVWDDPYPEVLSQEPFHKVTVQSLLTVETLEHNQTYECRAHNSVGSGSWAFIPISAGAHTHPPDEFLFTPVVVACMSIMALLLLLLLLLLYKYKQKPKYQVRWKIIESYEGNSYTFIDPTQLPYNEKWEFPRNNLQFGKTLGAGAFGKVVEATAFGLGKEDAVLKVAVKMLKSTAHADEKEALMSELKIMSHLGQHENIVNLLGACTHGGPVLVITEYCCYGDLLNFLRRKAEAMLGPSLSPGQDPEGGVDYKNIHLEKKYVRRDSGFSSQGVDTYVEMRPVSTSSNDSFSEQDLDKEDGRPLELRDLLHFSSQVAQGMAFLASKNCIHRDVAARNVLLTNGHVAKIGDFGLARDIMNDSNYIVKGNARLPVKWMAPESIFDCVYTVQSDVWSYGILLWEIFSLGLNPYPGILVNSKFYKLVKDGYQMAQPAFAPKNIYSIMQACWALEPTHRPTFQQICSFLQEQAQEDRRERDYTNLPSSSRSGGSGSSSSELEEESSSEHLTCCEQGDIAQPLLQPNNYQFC
T3 sequence (P09619 33-1106): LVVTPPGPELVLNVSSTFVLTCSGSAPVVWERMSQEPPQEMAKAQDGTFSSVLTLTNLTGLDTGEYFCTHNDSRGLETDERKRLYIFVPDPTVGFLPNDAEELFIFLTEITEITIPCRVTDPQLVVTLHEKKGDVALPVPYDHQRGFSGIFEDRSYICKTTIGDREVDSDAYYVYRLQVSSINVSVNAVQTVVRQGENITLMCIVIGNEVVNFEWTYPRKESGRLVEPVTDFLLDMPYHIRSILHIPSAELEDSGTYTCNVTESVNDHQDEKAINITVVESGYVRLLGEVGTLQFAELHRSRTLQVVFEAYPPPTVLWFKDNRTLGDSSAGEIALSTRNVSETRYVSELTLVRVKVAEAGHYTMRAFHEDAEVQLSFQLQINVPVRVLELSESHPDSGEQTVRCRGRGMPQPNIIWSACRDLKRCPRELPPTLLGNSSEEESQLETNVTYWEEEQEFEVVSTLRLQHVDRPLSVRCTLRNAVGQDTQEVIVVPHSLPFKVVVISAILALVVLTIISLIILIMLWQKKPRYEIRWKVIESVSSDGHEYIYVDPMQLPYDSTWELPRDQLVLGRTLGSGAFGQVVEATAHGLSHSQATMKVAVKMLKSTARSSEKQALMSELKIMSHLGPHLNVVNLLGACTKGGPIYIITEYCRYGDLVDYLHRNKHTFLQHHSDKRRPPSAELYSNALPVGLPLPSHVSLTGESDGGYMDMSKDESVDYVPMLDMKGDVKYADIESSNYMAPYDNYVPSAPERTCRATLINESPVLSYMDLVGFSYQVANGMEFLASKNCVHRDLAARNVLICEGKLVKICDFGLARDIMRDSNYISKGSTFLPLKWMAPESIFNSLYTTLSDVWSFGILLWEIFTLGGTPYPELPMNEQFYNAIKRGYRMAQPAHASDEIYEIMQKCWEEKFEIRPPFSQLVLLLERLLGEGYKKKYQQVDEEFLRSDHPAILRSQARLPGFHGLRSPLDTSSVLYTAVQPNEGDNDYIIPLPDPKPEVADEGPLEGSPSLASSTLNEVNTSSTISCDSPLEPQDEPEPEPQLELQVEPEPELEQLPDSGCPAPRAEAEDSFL

`Cc1cccc(Cn2nc(C)c3c(NC(=O)c4cnc5cc(OCCO)ccn45)cccc32)n1` [Example 57, 7-(2-hydroxyethoxy)-N-(3-methyl-1-((6-methylpyridin-2-yl)methyl)-1H-indazol-4-yl)imidazo[1,2-a]pyridine-3-carboxamide di-hydrochloride salt]: the negative-log IC50 (pIC50) was 7.40 on cFMS, 5.90 on c-KIT and 6.18 at PDGFR beta.
Taken in the same sequence, the figures for `COCCOc1ccn2c(C(=O)Nc3cccc4c3c(C)nn4CC3CC3)cnc2c1` [Example 84, N-(1-(cyclopropylmethyl)-3-methyl-1H-indazol-4-yl)-7-(2-methoxyethoxy)imidazo[1,2-a]pyridine-3-carboxamide] were 6.13, 5.30 and ≤ 6.00.
In the case of `COCCOc1ccn2c(C(=O)Nc3cccc4c3cnn4C[C@@H]3CCCN(C(=O)OC(C)(C)C)C3)cnc2c1` [Example 117, (R)-tert-butyl 3-((4-(7-(2-methoxyethoxy)imidazo[1,2-a]pyridine-3-carboxamido)-1H-indazol-1-yl)methyl)piperidine-1-carboxylate], the pIC50 on cFMS is 6.77; on c-KIT, 6.90; on PDGFR beta, 7.26.
`C[C@H]1CN(CCOc2ccn3c(C(=O)Nc4cccc5c4c(F)nn5Cc4cccc(C5CC5)n4)cnc3c2)CCN1C` [Example 24, (S)—N-(1-((6-cyclopropylpyridin-2-yl)methyl)-3-fluoro-1H-indazol-4-yl)-7-(2-(3,4-dimethylpiperazin-1-yl)ethoxy)imidazo[1,2-a]pyridine-3-carboxamide]: the pIC50 is 8.17 at cFMS, 8.19 on c-KIT and 7.85 against PDGFR beta.
Taken in the same sequence, the figures for `Cc1nn(Cc2cccc(C3CCC3)n2)c2cccc(NC(=O)c3cnc4cc(OCCN5CCN(C)[C@@H](C)C5)ccn34)c12` [Example 32, (S)—N-(1-((6-cyclobutylpyridin-2-yl)methyl)-3-methyl-1H-indazol-4-yl)-7-(2-(3,4-dimethylpiperazin-1-yl)ethoxy)imidazo[1,2-a]pyridine-3-carboxamide] were 7.62, 7.37 and 7.18.
Turning to `Cc1cccc(Cn2nc(C)c3c(NC(=O)c4cnc5cc(CCN6CCCC6)ccn45)cccc32)n1` [Example 77, N-(3-methyl-1-((6-methylpyridin-2-yl)methyl)-1H-indazol-4-yl)-7-(2-(pyrrolidin-1-yl)ethyl)imidazo[1,2-a]pyridine-3-carboxamide], the pIC50 was 7.11 at cFMS, 5.30 at c-KIT and ≤ 6.00 on PDGFR beta.
`Cc1cccc(Cn2nc(C)c3c(NC(=O)c4cnc5cc(CCO)ccn45)cccc32)n1` [Example 73, 7-(2-hydroxyethyl)-N-(3-methyl-1-((6-methylpyridin-2-yl)methyl)-1H-indazol-4-yl)imidazo[1,2-a]pyridine-3-carboxamide]: the pIC50 on cFMS is 7.20; at c-KIT, 5.30; on PDGFR beta, ≤ 6.00.
In the case of `Cc1cccc(Cn2nc(C)c3c(NC(=O)c4cnc5cc(C6=CCNCC6)ccn45)cccc32)n1` [Example 51, N-(3-methyl-1-((6-methylpyridin-2-yl)methyl)-1H-indazol-4-yl)-7-(1,2,3,6-tetrahydropyridin-4-yl)imidazo[1,2-a]pyridine-3-carboxamide hydrochloride], the pIC50 at cFMS was 8.00; on c-KIT, 6.16; on PDGFR beta it was 6.40.
With `Cc1cccc(Cn2nc(C)c3c(NC(=O)c4cnc5cc(F)ccn45)cccc32)n1` [Example 53, 7-fluoro-N-(3-methyl-1-((6-methylpyridin-2-yl)methyl)-1H-indazol-4-yl)imidazo[1,2-a]pyridine-3-carboxamide], the pIC50 is 7.13 on cFMS, 5.34 at c-KIT and ≤ 6.00 on PDGFR beta.
With `O=C(Nc1cccc2c1cnn2Cc1ccccc1)c1cnc2cc(O)ccn12` [Example 92, N-(1-benzyl-1H-indazol-4-yl)-7-hydroxyimidazo[1,2-a]pyridine-3-carboxamide], the results for the pIC50 at cFMS, on c-KIT and at PDGFR beta were 7.59, 6.69 and 6.86, respectively.
For `Cc1nn(Cc2cccc(C(C)C)n2)c2cccc(NC(=O)c3cnc4cc(OCCN5C[C@@H](C)N(C)[C@@H](C)C5)ccn34)c12` [Example 7, N-(1-((6-Isopropylpyridin-2-yl)methyl)-3-methyl-1H-indazol-4-yl)-7-(2-((3S,5R)-3,4,5-trimethylpiperazin-1-yl)ethoxy)imidazo[1,2-a]pyridine-3-carboxamide], the pIC50 at cFMS is 7.68; on c-KIT, 7.36; on PDGFR beta, 7.39.
Turning to `Cc1nn(Cc2ccc(F)c(C(C)C)n2)c2cccc(NC(=O)c3cnc4cc(OCCN5CCN(C)[C@@H](C)C5)ccn34)c12` [Example 41, (S)-7-(2-(3,4-dimethylpiperazin-1-yl)ethoxy)-N-(1-((5-fluoro-6-isopropylpyridin-2-yl)methyl)-3-methyl-1H-indazol-4-yl)imidazo[1,2-a]pyridine-3-carboxamide], the pIC50 was 7.01 on cFMS, 7.06 at c-KIT and 7.71 against PDGFR beta.
With `Cc1cccc(Cn2nc(C)c3c(NC(=O)c4cnc5cc(OCCN6CCN(C(=O)OC(C)(C)C)CC6)ccn45)cccc32)n1` [Example 56, tert-Butyl 4-(2-(3-(3-methyl-1-((6-methylpyridin-2-yl)methyl)-1H-indazol-4-ylcarbamoyl)imidazo[1,2-a]pyridin-7-yloxy)ethyl)piperazine-1-carboxylate], the figures for the pIC50 on cFMS, at c-KIT and on PDGFR beta were 7.49, 5.93 and ≤ 6.00, respectively.
Consider `C[C@H]1CN(CCOc2ccn3c(C(=O)Nc4cccc5c4c(Cl)nn5Cc4cccc(C5CC5)n4)cnc3c2)CCN1C` [Example 23, (S)—N-(3-chloro-1-((6-cyclopropylpyridin-2-yl)methyl)-1H-indazol-4-yl)-7-(2-(3,4-dimethylpiperazin-1-yl)ethoxy)imidazo[1,2-a]pyridine-3-carboxamide], for which the values for the pIC50 on cFMS, at c-KIT and against PDGFR beta were 7.68, 7.18 and 6.62, respectively.
With `Cc1cccc(Cn2nc(C)c3c(NC(=O)c4cnc5cc(OCCN6CCN(C)[C@@H](C)C6)ccn45)cccc32)n1` [Example 35, (S)-7-(2-(3,4-dimethylpiperazin-1-yl)ethoxy)-N-(3-methyl-1-((6-methylpyridin-2-yl)methyl)-1H-indazol-4-yl)imidazo[1,2-a]pyridine-3-carboxamide], the pIC50 at cFMS is 7.71; on c-KIT, 6.03; on PDGFR beta it was 6.37.
As to `CCC(C)c1cccc(Cn2nc(C)c3c(NC(=O)c4cnc5cc(OCCN6CCN(C)[C@@H](C)C6)ccn45)cccc32)n1` (stereo partly drawn) [Example 37, N-(1-((6-sec-butylpyridin-2-yl)methyl)-3-methyl-1H-indazol-4-yl)-7-(2-((S)-3,4-dimethylpiperazin-1-yl)ethoxy)imidazo[1,2-a]pyridine-3-carboxamide], the pIC50 is 7.28 at cFMS, 7.21 on c-KIT and 6.99 on PDGFR beta.
The like results for `Cc1cccc(Cn2nc(C)c3c(NC(=O)c4cnc5cc(C(C)NCCO)ccn45)cccc32)n1` (stereo not drawn) [Example 75, 7-(1-(2-hydroxyethylamino)ethyl)-N-(3-methyl-1-((6-methylpyridin-2-yl)methyl)-1H-indazol-4-yl)imidazo[1,2-a]pyridine-3-carboxamide] were, in that order, 6.37, 5.30 and ≤ 6.00.
`Cc1cccc(Cn2nc(C)c3c(NC(=O)c4cnc5cc(-c6cn[nH]c6)ccn45)cccc32)n1` [Example 70, N-(3-methyl-1-((6-methylpyridin-2-yl)methyl)-1H-indazol-4-yl)-7-(1H-pyrazol-4-yl)imidazo[1,2-a]pyridine-3-carboxamide]: the pIC50 was 8.29 at cFMS, 6.84 at c-KIT and 7.00 at PDGFR beta.
Turning to `O=C(Nc1cccc2c1cnn2Cc1ccccc1)c1cnc2cc(Br)ccn12` [Example 161, N-(1-benzyl-1H-indazol-4-yl)-7-bromoimidazo[1,2-a]pyridine-3-carboxamide], the pIC50 on cFMS was 7.23; on c-KIT it was 7.37; against PDGFR beta it was 6.63.
As for `Cc1nn(Cc2cccc(CC(C)C)n2)c2cccc(NC(=O)c3cnc4cc(OCCN5CCN(C)[C@@H](C)C5)ccn34)c12` [Example 40, (S)-7-(2-(3,4-dimethylpiperazin-1-yl)ethoxy)-N-(1-((6-isobutylpyridin-2-yl)methyl)-3-methyl-1H-indazol-4-yl)imidazo[1,2-a]pyridine-3-carboxamide], the negative-log IC50 (pIC50) is 7.25 on cFMS, 7.02 on c-KIT and 7.43 at PDGFR beta.
